{"source": "patent US20070031398A1", "about": "“One of several enzyme-containing compounds, dietetic food products and drugs produced from and the use therefor for medical purpose” (MUCOS PHARMA GmbH & Co., priority 2003, published 2007)", "system": "prostate carcinomas", "assay": "concomitant therapy during treatment of carcinomas", "type": "in vivo", "conditions": "prophylactic and therapeutic effects", "source_text": "This applies both to the period before, during and at defined intervals after the tumor-destructive therapy, e.g. an operation, chemotherapy and/or radiotherapy. The reduced intake of micronutrients (e.g. vitamins, trace elements) which is caused by nausea, reduced food intake, vomiting, diarrhea and sweating is compensated. This improves the patient's tolerance of the treatment, increases the response to the therapy and improves the patient's quality of life. […] Overall, the efficacy of the tumor-destructive therapy is improved."}
{"molecule": "CC(C)=CCC/C(C)=C/C=C/C(C)=C/C=C/C(C)=C/C=C/C=C(C)/C=C/C=C(C)/C=C/C=C(\\C)CCC=C(C)C", "note": "[lycopene]", "values": [{"measurement": "incidence and aggressiveness of prostate carcinomas", "value": "reduction in the incidence and aggressiveness"}]}
